Data on one molecule can be found in publication PMC10252837, “A Novel Time-Resolved Fluorescence Resonance Energy Transfer Assay for the Discovery of Small-Molecule Inhibitors of HIV-1 Tat-Regulated Transcription” (International Journal of Molecular Sciences, 2023).

Entries after “also recorded” stand apart in the source; their conditions may differ.

Series [1] has as its system Tat activity (Tat-induced viral transcription). The series can be described thus: microbe, parasite or virus in culture. It is filed as cell-based, HIV-1. As for the experimental part: (§1) (A) (Upper panel) Doxycycline (Dox)-inducible Tat-expressing bl-DTR cells cultured in 96-well plates treated with two-fold serial dilutions of each compound in the presence of Dox (50 ng/mL). At 24 h after treatment, the activity of firefly luciferase (F-Luc), indicating Tat activity, was determined as described in the Materials and Methods section. (Bottom panel) TZM-bl cells were treated with two-fold serial dilutions of the indicated compound and then infected with the HIV-1NL4-3 strain at a multiplicity of infection (MOI) of 1. At 24 h after infection, the viral infectivity and cell viability were determined as described in the Materials and Methods section. […] (B) 2 × 10^5 TZM-bl cells growing in 6-well plates were infected with HIV-1 (MOI = 1), transfected with a Tat-expressing plasmid (2 μg) or treated with PMA ([…]) upon indicated compounds at indicated concentrations, respectively. At 24 h after treatment, LTR promoter activity was determined via a Bright-Glo Luciferase Assay Kit. The relative activities are represented as the mean ± SD (n = 3) compared with the DMSO vesicle. (C) The biotinylated TAR RNA (2 nM) was incubated with ARM peptide (100 nM) in the presence of increasing amounts of the hit compound and separated on a 3–12% native polyacrylamide gel. The mobility of biotinylated TAR RNA was detected by chemiluminescence.
The inhibitory effect of hit compounds on Tat-mediated transcription was determined using doxycycline (Dox)-inducible Tat-expressing TZM-bl cells that express the LTR-driven firefly luciferase (F-Luc) gene under the control of Tat upon Dox treatment, as described previously but with minor modifications. In brief, 1 × 10^4 of the cells were cultured in 96-well plates, treated with compounds at a concentration of 10 µM (in the second round of screening), and then treated with Dox (final concentration: 50 ng/mL). After 24 h, the inhibitory effect of the hit compounds on Tat activity was determined by measuring F-Luc activity using a Bright-Glo Luciferase Assay Kit (Promega, Madison, WI, USA). For the dose–response assay, cells cultured in 100 μL medium were treated with 50 μL of 1:2 serially diluted compounds at concentrations ranging from 0 to 12.5 µM and then treated with 50 μL of Dox (final concentration: 50 ng/mL). At 24 h post-treatment, the F-Luc activity was determined as described above. All luminescence assays were carried out in a SpectraMax Paradigm Microplate Reader (Molecular Devices, San Jose, CA, USA), and the data were expressed as a relative percentage (%) compared to the DMSO control (vehicle) in the presence of Dox. The experiments were performed in triplicate.

The subject of series [2] is HIV-1NL4-3. The series can be described thus: HIV-1 infectivity in TZM-bl cells (LTR-driven F-Luc). To be noted: Human immunodeficiency virus 1, TZM-bl, 24 h, read-out: IC50 of Infectivity. It is filed as cell-based. As for the experimental part:
as §1
(§2) To determine the inhibitory effect of hit compounds on HIV-1 infection, we used TZM-bl cells (also referred to as JC53BL-13), which express HIV-1 receptors and contain the LTR-driven F-Luc gene controlled by HIV-1 infection, as described previously but with some minor modifications. Briefly, 1 × 10^4 TZM-bl cells cultured on 96-well plates were treated in triplicate wells with 1:2 serially diluted compounds at concentrations ranging from 0 to 12.5 µM. Subsequently, the cells were infected with HIV-1NL4-3 virus obtained from the transfection of 293T cells at a multiplicity of infection (MOI) of 1. At 24 h after infection, the inhibitory effect of the hit compounds on infectivity was determined using the Bright-Glo Luciferase Assay Kit (Promega). The dose–response data are expressed as a relative percentage compared to the DMSO control (vehicle). The inhibitory effects of the hit compounds on HIV-1 replication were determined as previously described. Briefly, 4 × 10^5 PBMCs pre-activated with phytohemagglutinin M (PHA-M) were washed with fresh media and then infected with HIV-1NL4-3 or HIV-1AD8 at an MOI of 0.1 by spinoculation for 2 h. After infection, the cells were treated with hit compounds at the indicated concentrations at 3–5 days after treatment, and the inhibitory effect of hit compounds on viral replication was determined by the titration of virions from the cell supernatant using a p24 […]™ Assay Kit (PerkinElmer) according to the manufacturer’s instructions. Cell viability was determined using resazurin-based PrestoBlue™ cell viability reagent (Thermo Fisher Scientific, Waltham, MA, USA) according to the manufacturer’s instructions. The data are presented as relative percentages compared to the DMSO control (vehicle). The experiments were performed in triplicate.

Series [3] in a line: in vitro. The note with it: human. The procedure: as §1
as §2, with “Subsequently, the cells were infected with HIV-1NL4-3 virus obtained from the transfection of 293T cells at a multiplicity of infection (MOI) of 1.” left out, “Briefly, 4 × 10^5 PBMCs pre-activated with phytohemagglutinin M (PHA-M) were washed with fresh media and then infected with HIV-1NL4-3 or HIV-1AD8 at an MOI of 0.1 by spinoculation for 2 h.” left out, “The data are presented as relative percentages compared to the DMSO control (vehicle). The experiments were performed in triplicate.” left out

Series [4] relates to TZM-bl cells. The series can be described thus: in vitro. The note with it: human, 24 h. The procedure: as §1
as §2, with “Subsequently, the cells were infected with HIV-1NL4-3 virus obtained from the transfection of 293T cells at a multiplicity of infection (MOI) of 1.” left out, “Briefly, 4 × 10^5 PBMCs pre-activated with phytohemagglutinin M (PHA-M) were washed with fresh media and then infected with HIV-1NL4-3 or HIV-1AD8 at an MOI of 0.1 by spinoculation for 2 h.” left out, “The data are presented as relative percentages compared to the DMSO control (vehicle). The experiments were performed in triplicate.” left out

The target in series [5] is TAR RNA. The series can be described thus: RNA gel mobility shift assay (biotinylated TAR RNA and ARM peptide). Format: binding, HIV-1. To be noted: 2 nM biotinylated TAR RNA, 100 nM ARM peptide. As for the experimental part:
To determine the inhibitory effect of hit compounds on the Tat (ARM)-TAR RNA interaction, a gel shift assay was carried out using the LightShift Chemiluminescent RNA EMSA Kit (Thermo Scientific) according to the manufacturer’s instructions, but with minor modifications suitable for our experiment. Briefly, 2 nM of 5′-biotinylated TAR RNA (nt 31) and 100 nM of ARM peptide were incubated with increasing amounts of hit compounds in the 1× REMSA binding buffer (10 mM HEPES pH 7.5, 10 mM MgCl2, 5 mM KCl, 1 mM DTT, and v/v 5 % glycerol) supplemented with 8 units/reaction of RNase OUT (Invitrogen) (final: 20 µL) at 20 °C for 20 min. Subsequently, the reaction was separated on a 3–12% native gradient PAGE gel. The RNA was then transferred to a nylon membrane to detect the mobility-shifted biotinylated TAR RNA using StAV-horseradish peroxidase conjugate. Chemiluminescence was detected using a GBox Chemi chemi-luminometer (Syngene, Fredrick, MD, USA).

Series [6] deals with HIV-1NL4-3 (X4-tropic). The series can be described thus: HIV-1 replication assay in PBMCs (p24), HIV-1NL4-3. It is filed as cell-based. To be noted: PHA-preactivated PBMCs, MOI 0.1, 72 h; 460-G06 at 12.5-100 nM. As for the experimental part: (§3) Figure 6 Phytohemagglutinin-preactivated peripheral blood mononuclear cells were infected with HIV-1NL4-3 (A) or HIV-1AD8 (B) at an MOI of 0.1 for 2 h and then treated with compounds at indicated concentrations for 72 h. […] The data are expressed as the mean ± SD (n = 3). * p < 0.05 indicates a comparison with the cells treated with DMSO (vehicle). ARVs, anti-retroviral drugs; EFV, efavirenz; DOL, dolutegravir; AZT, azidothymidine.
(§4) The experiments were performed in triplicate.

Series [7] deals with HIV-1AD8 (R5-tropic). The series can be described thus: HIV-1 replication assay in PBMCs (p24), HIV-1AD8. It is filed as cell-based. The note with it: PHA-preactivated PBMCs, MOI 0.1, 72 h; 460-G06 at 12.5-100 nM. As for the experimental part: as §3, §4
The test system of series [8] is peripheral blood mononuclear cells. The series can be described thus: Cell viability in PBMCs (PrestoBlue). To be noted: primary PBMCs, 72 h. It is filed as cell-based. As for the experimental part:
as §3, §4

As usually defined, the IC50 is the concentration that inhibits the measured activity by half. Usually Kd stands for the equilibrium constant for the complex coming apart.

For `CN1C/C=C/CCOc2cccc(c2)-c2ccnc(n2)Nc2cccc(c2)C1` [Hit 460-G06, (E)-6-methyl-12-oxa-3,6-diaza-2(4,2)-pyrimidine-1,4(1,3)-dibenzenacyclododecaphan-8-ene], the “dose response of Tat activity (F-Luc), in words” value in series [1] (0-12.5 μM, bl-DTR cells) is “gradual inhibition of F-Luc activity”. For the same molecule, the IC50 is 11 ± 1 nM in series [1] (Human immunodeficiency virus 1, 24 h, read-out: IC50 of Tat Activity) and 13 ± 3 nM in series [2]. In addition, the CC50 at 24 h in series [3] worked out at 4940 ± 440 nM. In addition, the “concentration at which cytotoxicity is indicated” value in series [4] was “over 0.1 μM”. Further, the Kd in series [5] amounted to 132000 nM. In series [5], the “dissociation of ARM from TAR RNA, in words” value is “directly bound to the TAR RNA and efficiently dissociated the ARM from TAR RNA”. Besides, the “inhibition of viral replication, in words” value in series [6] and in series [7] was “inhibited viral replication in a dose-dependent manner” throughout. Also, in series [8], the “cell viability / cytotoxicity in PBMCs, in words” value is on record as “without a severe decrease in cell viability; also recorded: such cytotoxicity was not observed”.
